SMILES strings stand for the structures. Where a name gives a salt, the structure may show the parent alone.
Further: key: +: not sensitive; −: sensitive.

For the experiment, the system named is biocontrol strain ST15. In kind it is cell-based, Bacillus altitudinis.
With `[Cl-].[Na+]` [1% NaCl, NaCl], the “chemical sensitivity of strain ST15” value is on record as “+”.
The value for `O=[Te]([O-])[O-].[K+].[K+]` [Dipotassium trioxotellurate] was “+”.
With `C[C@H]1[C@H](NC(=O)/C(=N\OC(C)(C)C(=O)O)c2csc(N)n2)C(=O)N1S(=O)(=O)O` [Aztreonam] the entry was “+”.
With `CCCC(=O)[O-].[Na+]` [Sodium butyrate] the entry was “+”; with `CCn1cc(C(=O)O)c(=O)c2ccc(C)nc21` [Nalidixic acid], “+”; with `CC(=O)O[C@H]1C[C@@]2(C)[C@@H](C[C@@H](O)[C@H]3[C@@]4(C)CC[C@@H](O)[C@@H](C)[C@@H]4CC[C@@]32C)/C1=C(\CCC=C(C)C)C(=O)O` [Fusidic acid], “−”.
With `COc1cc(-c2ccc(-n3nc(-c4ccccc4)n[n+]3-c3ccccc3)c(OC)c2)ccc1-n1nc(-c2ccccc2)n[n+]1-c1ccccc1.[Cl-].[Cl-]` [Tetrazolium blue], the “chemical sensitivity of strain ST15” value is “−”.
Consider `CCCCCCCCCCCCCCOS(=O)(=O)[O-].[Na+]` [Sodium tetradecyl sulfate], for which the “chemical sensitivity of strain ST15” value is “−”.
The value for `CO[C@H]1/C=C/O[C@@]2(C)Oc3c(C)c([O-])c4c(O)c(cc(O)c4c3C2=O)NC(=O)/C(C)=C\C=C\[C@H](C)[C@H](O)[C@@H](C)[C@@H](O)[C@@H](C)[C@H](OC(C)=O)[C@@H]1C.[Na+]` [Rifamycin SV] was “−”.
With `CC(O)C(=O)[O-].[Na+]` (centres unmarked) [1% sodium lactate, sodium lactate], the “chemical sensitivity of strain ST15” value is on record as “+”.
For `N[C@H](CO)C(=O)O` [D-serine], the “chemical sensitivity of strain ST15” value is listed as “−”.
In the case of `N=C(N)N` [Guanidine hydrochloride], the “chemical sensitivity of strain ST15” value is given as “+”.
With `CO[C@H]1C[C@H](O[C@H]2[C@H](C)[C@@H](O[C@@H]3O[C@H](C)C[C@H](N(C)C)[C@H]3OC(C)=O)[C@@H](C)C[C@@]3(CO3)C(=O)[C@H](C)[C@@H](OC(C)=O)[C@@H](C)[C@@H](C)OC(=O)[C@@H]2C)O[C@@H](C)[C@@H]1OC(C)=O` [Troleandomycin] the entry was “−”; with `c1ccc(-c2nn(-c3ccccc3)[n+](-c3cccc4ccccc34)n2)cc1` [Tetrazolium violet], “−”; with `[Cl-].[Li+]` [Lithium chloride], “+”.
As for `CCC[C@@H]1C[C@@H](C(=O)N[C@@H]([C@H]2O[C@H](SC)[C@H](O)[C@@H](O)[C@H]2O)[C@@H](C)O)N(C)C1` [Lincomycin], the “chemical sensitivity of strain ST15” value is “+”.
Consider `CN[C@H](CC(C)C)C(=O)N[C@H]1C(=O)N[C@@H](CC(N)=O)C(=O)N[C@H]2C(=O)N[C@H]3C(=O)N[C@H](C(=O)N[C@H](C(=O)O)c4cc(O)cc(O)c4-c4cc3ccc4O)[C@H](O)c3ccc(c(Cl)c3)Oc3cc2cc(c3O[C@@H]2O[C@H](CO)[C@@H](O)[C@H](O)[C@H]2O[C@H]2C[C@](C)(N)[C@H](O)[C@H](C)O2)Oc2ccc(cc2Cl)[C@H]1O` [Vancomycin], for which the “chemical sensitivity of strain ST15” value is “−”.
